Entries after “also recorded” stand apart in the source; their conditions may differ.
Experiments:
HFpEF mice [1] = assay: Heart weight and heart histology (Masson's trichrome, WGA), cohort 2; assay type: in vivo, C57BL/6J mice; conditions: for cardiac fibrosis / cardiomyocyte hypertrophy: HFpEF mice following Adropin treatment, histology
Text: (§1) Animal Care and Use. Male C57BL/6J 8-week-old mice were obtained from the Jackson Laboratory and maintained on chow for 4 weeks to acclimate to their new environment. Animals were housed in the University of Pittsburgh animal facility under standard conditions with ad libitum access to water and food and maintained on a constant 12-hour light/dark cycle. At 12 weeks of age, the mice were exposed to normal chow (Chow; 60% carbohydrate, 26% protein, 14% fat), or a combination of high-fat diet (HFD; 20% carbohydrate, 20% protein, 60% fat) plus No-nitro-L-arginine methyl ester (L-NAME: 0.5 g/L) supplemented in their drinking water after adjusting the pH to 7.4 with 1N NaOH to induce HFpEF [10]. For cohort 1, the mice were subject to the HFpEF diet for 15 weeks. For cohort 2, after 8 weeks of diet, mice were randomly assigned to a control or treatment group receiving daily intraperitoneal injections of either vehicle or recombinant adropin at 450 nmol/kg animal weight prepared in PBS with 0.1% BSA for the remaining 5 weeks of the study. L-NAME supplemented drinking water was changed weekly and adropin was made fresh and sterile filtered before each use.
Histology. Preparation and staining of all histological samples were conducted by the Pitt Biospecimen Core at the University of Pittsburgh. All mice were sacrificed, and tissue harvested for analysis within one hour of completion of the IPGTT study. The apex of the heart and right (cohort 1) or left (cohort 2) lobe of the liver was excised from each mouse following euthanasia, fixed in 10% buffered formalin phosphate overnight at shaking incubation, washed 3 times for 5 min with 1× phosphate-buffered saline (PBS), and then transferred to 70% ethanol. Samples were then embedded in paraffin, sectioned into 4 μm slides and stained with hematoxylin and eosin (H&E), wheat germ agglutinin (WGA) or Masson's Trichrome for analysis. The NAFLD/MAFLD activity score (NAS) was obtained based on methods established by the Pathology Committee of the Non-alcoholic Steatohepatitis (NASH) Clinical Research Network. Liver pathology scoring was performed in a blinded independent fashion. NAS consisted of separate category scores which included steatosis (0-3), where 0=0-5%, 1=6-33%, 2=34-66%, and 3=67-100% of hepatocytes positive for steatosis; lobular inflammation (0-3), where 0=no foci, 1=[…], 2=2-4 foci and 3=greater than 4 foci all per 200× field; and hepatocellular ballooning (0-2), where 0=none present, 1=few and 2=many/prominent. The final NAS represents a sum of the three category scores. Histology sections were visualized with the Evos FL Auto 2 Microscope, observed changes in structure were quantified using ImageJ software and representative images are shown.

HFpEF mice [2] = assay: Echocardiography, cohort 2; assay type: in vivo, C57BL/6J mice; conditions: HFpEF mice treated with Adropin 450 nmol/kg daily i.p.
Text: (§2) Twelve week-old C57BL/6J wild-type male mice were exposed to normal chow, or a combination of 60% high fat diet plus N^ω-nitro-L-arginine methyl ester (L-NAME: 0.5 g/L in drinking water) to induce HFpEF. After 8 weeks of diet, mice were randomly assigned to a control HFpEF group, or to a group receiving daily intraperitoneal injections of recombinant Adropin (450 nmol/kg) for the remaining weeks of the study. All animal experiments were approved by the University of Pittsburgh Institutional Animal Care and Use Committee. […] These changes occurred in the absence of systolic dysfunction (FIG. 6). Each marker of cardiac dysfunction was absent in HFpEF mice treated with Adropin (FIG. 6).
Animal Care and Use. Male C57BL/6J 8-week-old mice were obtained from the Jackson Laboratory and maintained on chow for 4 weeks to acclimate to their new environment. […]
Echocardiography. Mice were anesthetized using isofluorane (1.5%-2.0% v/v by inhalation) and monitored for cardiac functional parameters in the supine position using a Visual Sonics Vevo 3100. […] The left atrial area was quantified in the apical 4-chamber view by tracing the border of the left atrium. Markers of systolic and diastolic function were calculated using standard echocardiography equations. […] Image analysis was performed independently by a blinded sonographer and all parameters were measured at least 3 times, and averages are presented.

HFpEF mice [3] = assay: Liver H&E histology, NAFLD/MAFLD activity score (NAS), cohort 2; assay type: in vivo, C57BL/6J mice; conditions: adropin-treated vs HFpEF mice; non-significant
Text: as §1
Histology. […] Histology sections were visualized with the Evos FL Auto 2 Microscope, observed changes in structure were quantified using ImageJ software and representative images are shown.

LCAD = LCAD activity assay in cardiac tissue; assay type: in vivo, C57BL/6J mice; conditions: isolated cardiac tissues; downregulated in HFpEF vs chow
Text: as §1
LCAD Activity Assay/Biochemical Assays/Enzyme activity assay. […] The reaction was initiated with 60 µM acyl-CoA, and the rate of absorbance change was measured/observed at 600 nm over 45 min. […]

[4] = system: hearts isolated from chow-fed mice; conditions: cited from earlier work
HFpEF mice [5] = assay: Cardiac function testing by ultrasonography in HFpEF mice (Example 1); assay type: in vivo; conditions: for diastolic function: HFpEF mice, daily Adropin treatment
Protocol: Administration of Recombinant Adropin. Mice received low-fat chow or HFpEF diet for 10 weeks. For the following 4 weeks, the mice were maintained on respective diets and received daily injections of recombinant Adropin. Body weight was measured every day during the four weeks of treatment.
Cardiac function testing. After 2 weeks, mice were tested using ultrasonography to measure cardiac function and morphology. To determine systolic function and morphology, mice were tested using M-mode echocardiography to measure left ventricle (LV) mass, volume, wall thickness, and contraction (LV ejection fraction and fractional shortening). To determine diastolic function, mice were tested using Doppler to measure LV relaxation and filling (E/A ratio, E/e′ ratio, and isovolumetric relaxation time [IVRT]).

HFpEF mice [6] = assay: Body weight, HFpEF (HFD+L-NAME) mice with daily i.p. recombinant adropin (cohort 2, Examples 3 and 4); assay type: in vivo, C57BL/6J mice; conditions: HFpEF+Adropin vs vehicle-treated HFpEF, 450 nmol/kg daily i.p., day 28
Text: as §2
Animal Care and Use. Male C57BL/6J 8-week-old mice were obtained from the Jackson Laboratory and maintained on chow for 4 weeks to acclimate to their new environment. Animals were housed in the University of Pittsburgh animal facility under standard conditions with ad libitum access to water and food and maintained on a constant 12-hour light/dark cycle. At 12 weeks of age, the mice were exposed to normal chow (Chow; 60% carbohydrate, 26% protein, 14% fat), or a combination of high-fat diet (HFD; 20% carbohydrate, 20% protein, 60% fat) plus No-nitro-L-arginine methyl ester (L-NAME: 0.5 g/L) supplemented in their drinking water after adjusting the pH to 7.4 with 1N NaOH to induce HFpEF [10]. […]

[7] = 2 weeks of Adropin, vs HFpEF mice without treatment
[8] = 2 weeks of Adropin, vs HFpEF mice without treatment, p-value <0.05

Adropin: recombinant Adropin peptide hormone encoded by the ENHO gene; full-length (SEQ ID NO: 1) or cleaved product of amino acids 34-76 (SEQ ID NO: 2) (CHSRSADVDSLSESSPNSSPGPCPEKAPPPQKPSHEGSYLLQP)
increase in normalized heart weight to tibia length (HFpEF mice [1]; HFpEF increase vs chow, in adropin-treated animals): absent | cardiac fibrosis (HFpEF mice [1]): prevented the development; also recorded: reduced | cardiomyocyte hypertrophy (HFpEF mice [1]): prevented the development; also recorded: reduced | cardiac fibrosis (HFpEF mice [1]; listed as adropin): reversed | cardiomyocyte hypertrophy (HFpEF mice [1]; listed as adropin): reversed | markers of cardiac (diastolic) dysfunction: increased heart/LV mass, decreased cardiac output, increased IVRT, increased LV MPI (HFpEF mice [2]): absent; also recorded: improved | markers of cardiac (diastolic) dysfunction: increased heart/LV mass, decreased cardiac output, increased IVRT, increased LV MPI (HFpEF mice [2]; listed as adropin): absent; also recorded: attenuates | decrease in liver NAS (HFpEF mice [3]): ~7% | LCAD enzymatic activity (oxidation rates) (LCAD): restored | cardiac contractility ([4]; acute adropin treatment, hearts isolated from chow-fed mice [32]): increase | effect on cardiac contractility after exposure to a long-term HFD ([4]; ex vivo perfusion studies [33]): lost | average cardiac output (HFpEF mice [5]; [7]): greater | average ejection fraction (HFpEF mice [5]; [7]): greater | isovolumetric relaxation time (IVRT) (HFpEF mice [5]; [8]): significantly lower | left ventricle myocardial performance index (LV MPI) (HFpEF mice [5]; [8]): significantly lower | diastolic function (HFpEF mice [5]): improves | diastolic function (HFpEF mice [5]; listed as Recombinant Adropin): significant increase | diastolic function (HFpEF mice [5]; listed as recombinant Adropin): improved | average LV mass (HFpEF mice [5]; following 2 weeks of Adropin, vs HFpEF mice without treatment): lower | absolute body weight (HFpEF mice [6]): not associated with a significant decrease; also recorded: does not significantly change | absolute body weight (HFpEF mice [6]; listed as adropin): non-significant decrease
